# Measurements from PubChem BioAssay AID2060883 (Molecular Pharmacology Branch, DTP, NCI, 2025).
# Test system: 843782-103-R-J1-PDC complex spheroid viability
# Experiment: Anticancer human tumor 843782-103-R-J1-PDC patient-derived lung adenocarcinoma cell line growth inhibition [RAS]
# Conditions: for viability, T/C: stronger effect = lower value
# Method in brief: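 Multi-cell-type spheroids: tumor cells plus HUVEC endothelial cells and mesenchymal stem cells. RAS-pathway inhibitors were combined with targeted agents, each dosed in half-log steps down from clinical Cmax, or from 10 microM when Cmax was unknown.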
# 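Note: viability read after seven days of compound exposure.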
smiles,measurement,setting,value
CC(=O)OC12COC1CC(O)C1(C)C(=O)C(O)C3=C(C)C(OC(=O)C(O)C(NC(=O)OC(C)(C)C)c4ccccc4)CC(O)(C(OC(=O)c4ccccc4)C21)C3(C)C (stereo unspecified) + CCn1c(-c2cccnc2C(C)OC)c2c3cc(ccc31)N1CCOC(CC(NC(=O)C(C(C)C)N(C)C(=O)C3(F)CCN(C(=O)C#CC(C)(C)N(C)C)CC3)C(=O)N3CCCC(N3)C(=O)OCC(C)(C)C2)C1,IC50,"curve of first compound, second compound 0.000949 µM",< 31.6 nM
same,IC50,"curve of first compound, second compound 0.003 µM",< 31.6 nM
same,IC50,"curve of first compound, second compound 0.00949 µM",< 31.6 nM
same,IC50,"curve of first compound, second compound 0.03 µM",< 31.6 nM
same,IC50,"curve of first compound, second compound 0.0949 µM",< 31.6 nM
same,IC50,"curve of first compound, second compound 0.3 µM",< 31.6 nM
same,"viability, T/C","second compound 0.000949 µM, first compound 0.0316 µM",4.08%
same,"viability, T/C","second compound 0.000949 µM, first compound 0.1 µM",5.48%
same,"viability, T/C","second compound 0.000949 µM, first compound 0.316 µM",6.81%
same,"viability, T/C","second compound 0.000949 µM, first compound 1 µM",5.51%
same,"viability, T/C","second compound 0.000949 µM, first compound 3.16 µM",7.48%
same,"viability, T/C","second compound 0.000949 µM, first compound 10 µM",11.2%
same,"viability, T/C","second compound 0.003 µM, first compound 0.0316 µM",5.53%
same,"viability, T/C","second compound 0.003 µM, first compound 0.1 µM",7.6%
same,"viability, T/C","second compound 0.003 µM, first compound 0.316 µM",7.77%
same,"viability, T/C","second compound 0.003 µM, first compound 1 µM",6.28%
same,"viability, T/C","second compound 0.003 µM, first compound 3.16 µM",6.75%
same,"viability, T/C","second compound 0.003 µM, first compound 10 µM",9.92%
same,"viability, T/C","second compound 0.00949 µM, first compound 0.0316 µM",5.3%
same,"viability, T/C","second compound 0.00949 µM, first compound 0.1 µM",8.65%
same,"viability, T/C","second compound 0.00949 µM, first compound 0.316 µM",9.68%
same,"viability, T/C","second compound 0.00949 µM, first compound 1 µM",7.03%
same,"viability, T/C","second compound 0.00949 µM, first compound 3.16 µM",10%
same,"viability, T/C","second compound 0.00949 µM, first compound 10 µM",9.14%
same,"viability, T/C","second compound 0.03 µM, first compound 0.0316 µM",5.25%
same,"viability, T/C","second compound 0.03 µM, first compound 0.1 µM",7.67%
same,"viability, T/C","second compound 0.03 µM, first compound 0.316 µM",6.65%
same,"viability, T/C","second compound 0.03 µM, first compound 1 µM",8.38%
same,"viability, T/C","second compound 0.03 µM, first compound 3.16 µM",9.51%
same,"viability, T/C","second compound 0.03 µM, first compound 10 µM",12.3%
same,"viability, T/C","second compound 0.0949 µM, first compound 0.0316 µM",8.61%
same,"viability, T/C","second compound 0.0949 µM, first compound 0.1 µM",7.03%
same,"viability, T/C","second compound 0.0949 µM, first compound 0.316 µM",8.34%
same,"viability, T/C","second compound 0.0949 µM, first compound 1 µM",7.78%
same,"viability, T/C","second compound 0.0949 µM, first compound 3.16 µM",10.6%
same,"viability, T/C","second compound 0.0949 µM, first compound 10 µM",9.37%
same,"viability, T/C","second compound 0.3 µM, first compound 0.0316 µM",3.84%
same,"viability, T/C","second compound 0.3 µM, first compound 0.1 µM",5.17%
same,"viability, T/C","second compound 0.3 µM, first compound 0.316 µM",6.69%
same,"viability, T/C","second compound 0.3 µM, first compound 1 µM",9.62%
same,"viability, T/C","second compound 0.3 µM, first compound 3.16 µM",8.58%
same,"viability, T/C","second compound 0.3 µM, first compound 10 µM",9.58%
CCn1c(-c2cccnc2C(C)OC)c2c3cc(ccc31)N1CCOC(CC(NC(=O)C(C(C)C)N(C)C(=O)C3(F)CCN(C(=O)C#CC(C)(C)N(C)C)CC3)C(=O)N3CCCC(N3)C(=O)OCC(C)(C)C2)C1 (stereo unspecified),"viability, T/C",compound 0.000949 µM,82.9% [middle of 8 runs]
same,"viability, T/C",compound 0.003 µM,80.1% [middle of 8 runs]
same,"viability, T/C",compound 0.00949 µM,79.1% [middle of 8 runs]
same,"viability, T/C",compound 0.03 µM,75.8% [middle of 8 runs]
same,"viability, T/C",compound 0.0949 µM,68.4% [middle of 8 runs]
same,"viability, T/C",compound 0.3 µM,67.3% [middle of 8 runs]
same,IC50,"compound alone, run of 08/20/2024",> 300 nM
CCc1c2c(nc3ccc(O)cc13)-c1cc3c(c(=O)n1C2)COC(=O)[C@]3(O)CC + C=CC(=O)N1CCN(c2nc(OCC3CCCN3C)nc3c(F)c(-c4nc(N)cc(C)c4C(F)(F)F)c(Cl)cc23)C(C)C1,IC50,"curve of first compound, second compound 0.00316 µM",1.67 nM
same,IC50,"curve of first compound, second compound 0.01 µM",1.52 nM
same,IC50,"curve of first compound, second compound 0.0316 µM",1.56 nM
same,IC50,"curve of first compound, second compound 0.1 µM",1.56 nM
same,IC50,"curve of first compound, second compound 0.316 µM",1.54 nM
same,IC50,"curve of first compound, second compound 1 µM",1.52 nM
same,"viability, T/C","second compound 0.00316 µM, first compound 0.000949 µM",80.4%
same,"viability, T/C","second compound 0.00316 µM, first compound 0.003 µM",18.2%
same,"viability, T/C","second compound 0.00316 µM, first compound 0.00949 µM",6.35%
same,"viability, T/C","second compound 0.00316 µM, first compound 0.03 µM",2.5%
same,"viability, T/C","second compound 0.00316 µM, first compound 0.0949 µM",1.18%
same,"viability, T/C","second compound 0.00316 µM, first compound 0.3 µM",0.74%
same,"viability, T/C","second compound 0.01 µM, first compound 0.000949 µM",72.8%
same,"viability, T/C","second compound 0.01 µM, first compound 0.003 µM",16.8%
same,"viability, T/C","second compound 0.01 µM, first compound 0.00949 µM",8.52%
same,"viability, T/C","second compound 0.01 µM, first compound 0.03 µM",3.04%
same,"viability, T/C","second compound 0.01 µM, first compound 0.0949 µM",0.93%
same,"viability, T/C","second compound 0.01 µM, first compound 0.3 µM",0.76%
same,"viability, T/C","second compound 0.0316 µM, first compound 0.000949 µM",72.6%
same,"viability, T/C","second compound 0.0316 µM, first compound 0.003 µM",19.5%
same,"viability, T/C","second compound 0.0316 µM, first compound 0.00949 µM",7.44%
same,"viability, T/C","second compound 0.0316 µM, first compound 0.03 µM",2.35%
same,"viability, T/C","second compound 0.0316 µM, first compound 0.0949 µM",1.24%
same,"viability, T/C","second compound 0.0316 µM, first compound 0.3 µM",0.8%
same,"viability, T/C","second compound 0.1 µM, first compound 0.000949 µM",73.6%
same,"viability, T/C","second compound 0.1 µM, first compound 0.003 µM",18.1%
same,"viability, T/C","second compound 0.1 µM, first compound 0.00949 µM",7.09%
same,"viability, T/C","second compound 0.1 µM, first compound 0.03 µM",1.96%
same,"viability, T/C","second compound 0.1 µM, first compound 0.0949 µM",1.46%
same,"viability, T/C","second compound 0.1 µM, first compound 0.3 µM",0.64%
same,"viability, T/C","second compound 0.316 µM, first compound 0.000949 µM",70.7%
same,"viability, T/C","second compound 0.316 µM, first compound 0.003 µM",21.1%
same,"viability, T/C","second compound 0.316 µM, first compound 0.00949 µM",7.83%
same,"viability, T/C","second compound 0.316 µM, first compound 0.03 µM",2.85%
same,"viability, T/C","second compound 0.316 µM, first compound 0.0949 µM",1.34%
same,"viability, T/C","second compound 0.316 µM, first compound 0.3 µM",0.99%
same,"viability, T/C","second compound 1 µM, first compound 0.000949 µM",67.7%
same,"viability, T/C","second compound 1 µM, first compound 0.003 µM",24.5%
same,"viability, T/C","second compound 1 µM, first compound 0.00949 µM",7.99%
same,"viability, T/C","second compound 1 µM, first compound 0.03 µM",3.23%
same,"viability, T/C","second compound 1 µM, first compound 0.0949 µM",1.57%
same,"viability, T/C","second compound 1 µM, first compound 0.3 µM",0.98%
